Reference: US20110039762A1, “TARGETED ANTIMICROBIAL MOIETIES” (C3 JIAN, INC., priority 2009, published 2011)
Entries after “also recorded” stand apart in the source; their conditions may differ.

How the values were obtained:
S. mutans [1] = type: cell-based, Streptococcus mutans; settings: S. mutans
Description: Typically, the in vitro antimicrobial activity of antimicrobial agents is tested using standard NCCLS bacterial inhibition assays, or MIC tests (see, National Committee on Clinical Laboratory Standards “Performance Standards for Antimicrobial Susceptibility Testing,” NCCLS Document M100-S5 Vol. 14, No. 16, December 1994; “Methods for dilution antimicrobial susceptibility test for bacteria that grow aerobically-Third Edition,” Approved Standard M7-A3, National Committee for Clinical Standards, Villanova, Pa.).
Briefly, ˜1×10^5 cfu/mL bacteria were diluted in TH (S. mutans), or Mueller-Hinton (MH) broth (all other organisms) and distributed to 96-well plates. Serially-diluted (2-fold) peptides were then added and the plates incubated at 37° C. for 18-24 h. […] All experiments were conducted 10 times.

E. faecalis = assay: Kill or inhibit growth/proliferation; morphology, biofilm and growth disruption (Tables 5, 6); type: cell-based, Enterococcus faecalis; set-up: key: A: Peptide aggregates; B: Less hyphal formation; Clumps; Diffuse clumps and small polyps; F: Diffuse growth; H: Thin; I: Growth inhibition; Microcolony formation; Rippled; Small polyps; Thick; W: Halo formation on top, microlonies on bottom; note: test concentration or dose not given here
MRSA = assay: as above; type: cell-based, Methicillin-resistant Staphylococcus aureus; set-up: key: A: Peptide aggregates; B: Less hyphal formation; Clumps; Diffuse clumps and small polyps; F: Diffuse growth; H: Thin; I: Growth inhibition; Microcolony formation; Rippled; Small polyps; Thick; W: Halo formation on top, microlonies on bottom; note: test concentration or dose not given here
S. epidermidis = assay: as above; type: cell-based, Staphylococcus epidermidis; set-up: key: A: Peptide aggregates; B: Less hyphal formation; Clumps; Diffuse clumps and small polyps; F: Diffuse growth; H: Thin; I: Growth inhibition; Microcolony formation; Rippled; Small polyps; Thick; W: Halo formation on top, microlonies on bottom
S. pneumoniae = assay: as above; type: cell-based, Streptococcus pneumoniae; set-up: key: A: Peptide aggregates; B: Less hyphal formation; Clumps; Diffuse clumps and small polyps; F: Diffuse growth; H: Thin; I: Growth inhibition; Microcolony formation; Rippled; Small polyps; Thick; W: Halo formation on top, microlonies on bottom; note: test concentration or dose not given here
C. jejuni = assay: as above; type: cell-based, Campylobacter jejuni; set-up: key: A: Peptide aggregates; B: Less hyphal formation; Clumps; Diffuse clumps and small polyps; F: Diffuse growth; H: Thin; I: Growth inhibition; Microcolony formation; Rippled; Small polyps; Thick; W: Halo formation on top, microlonies on bottom; note: test concentration or dose not given here
E. coli = assay: as above; type: cell-based, Escherichia coli; set-up: key: A: Peptide aggregates; B: Less hyphal formation; Clumps; Diffuse clumps and small polyps; F: Diffuse growth; H: Thin; I: Growth inhibition; Microcolony formation; Rippled; Small polyps; Thick; W: Halo formation on top, microlonies on bottom; note: test concentration or dose not given here
P. aeruginosa = assay: as above; type: cell-based, Pseudomonas aeruginosa; set-up: key: A: Peptide aggregates; B: Less hyphal formation; Clumps; Diffuse clumps and small polyps; F: Diffuse growth; H: Thin; I: Growth inhibition; Microcolony formation; Rippled; Small polyps; Thick; W: Halo formation on top, microlonies on bottom; note: test concentration or dose not given here
C. albicans = assay: as above; type: cell-based, Candida albicans; set-up: key: A: Peptide aggregates; B: Less hyphal formation; Clumps; Diffuse clumps and small polyps; F: Diffuse growth; H: Thin; I: Growth inhibition; Microcolony formation; Rippled; Small polyps; Thick; W: Halo formation on top, microlonies on bottom; note: test concentration or dose not given here
microorganisms = assay: Peptides having multiple activities (targeting/binding, antimicrobial, growth or phenotype altering)
Description: In certain embodiments, peptides described herein can have multiple activities. Thus for example, a peptide can have both binding/targeting activity and antimicrobial activity. Such peptides can be used, e.g., in a chimeric construct, for any or all of these properties. Thus, for example, a peptide designated “B” in Table 8 can be used as a targeting peptide. If it is also designated G or M it can also be used for antimicrobial activity.

B. subtilis = assay: Kill or inhibit growth/proliferation; morphology, biofilm and growth disruption (Tables 5, 6); type: cell-based, Bacillus subtilis; set-up: key: A: Peptide aggregates; B: Less hyphal formation; Clumps; Diffuse clumps and small polyps; F: Diffuse growth; H: Thin; I: Growth inhibition; Microcolony formation; Rippled; Small polyps; Thick; W: Halo formation on top, microlonies on bottom; note: test concentration or dose not given here
C. jeikeium = assay: as above; type: cell-based, Corynebacterium jeikeium; set-up: key: A: Peptide aggregates; B: Less hyphal formation; Clumps; Diffuse clumps and small polyps; F: Diffuse growth; H: Thin; I: Growth inhibition; Microcolony formation; Rippled; Small polyps; Thick; W: Halo formation on top, microlonies on bottom; note: test concentration or dose not given here
M. luteus = assay: as above; type: cell-based, Micrococcus luteus; set-up: key: A: Peptide aggregates; B: Less hyphal formation; Clumps; Diffuse clumps and small polyps; F: Diffuse growth; H: Thin; I: Growth inhibition; Microcolony formation; Rippled; Small polyps; Thick; W: Halo formation on top, microlonies on bottom
S. mutans [2] = assay: as above; type: cell-based, Streptococcus mutans; set-up: key: A: Peptide aggregates; B: Less hyphal formation; Clumps; Diffuse clumps and small polyps; F: Diffuse growth; H: Thin; I: Growth inhibition; Microcolony formation; Rippled; Small polyps; Thick; W: Halo formation on top, microlonies on bottom
[3] = system: microorganisms (e.g., bacteria, yeasts, fungi); assay: Targeting peptide binding to target microorganisms (Table 3); settings: preferably 1x PBS; for Target(s) (microorganisms bound by the targeting peptide): peptide binding in aqueous buffers varied by peptide solubility
Throughout, for Organism, effect (morphology, biofilm and growth disruption): test concentration or dose not given here.
Throughout, for Organism, effect: test concentration or dose not given here.

Substance: FLKFLKKFFKKLKY [Peptide K-20]
- MIC (S. mutans [1]): S. mutans, 8 μM

Substance: GLGRVIGRLIKQIIWRR [Peptide K-1]
- MIC (S. mutans [1]): S. mutans, 25 μM

Substance: PF-605: peptide having multiple activities (HYRWNTQWWKY; Peptide with targeting and/or antimicrobial activity)
- Organism, effect (E. faecalis): E. faecalis (R)
- Organism, effect (MRSA): MRSA (C)
- Organism, effect (S. epidermidis): S. epidermidis (R)
- Organism, effect (S. pneumoniae): S. pneumoniae (D)
- Organism, effect (C. jejuni): C. jejuni (R)
- Organism, effect (E. coli): E. coli (C)
- Organism, effect (P. aeruginosa): P. aeruginosa (A)
- Organism, effect (C. albicans): C. albicans (B)
- Activities (microorganisms): G B

Substance: GWLKMFKKIIGKFGKF [Peptide K-21]
- MIC (S. mutans [1]): S. mutans, 8 μM

Substance: KILKFLFKKVF [Peptide K-8]
- MIC (S. mutans [1]): S. mutans, 4 μM

Substance: KLFKFLRKHLL [Peptide K-10]
- MIC (S. mutans [1]): S. mutans, 4 μM

Substance: PF-474: peptide having multiple activities (chain 1 MHRNLVLVKMEPIPHIMIIANQIGIIIEKA; chain 2 MHRNLVLVKMEPIPHIMIIANQIGIIIEKA; Peptide with targeting and/or antimicrobial activity)
- Organism, effect (E. faecalis): E. faecalis (C)
- Organism, effect (MRSA): MRSA (D)
- Organism, effect (S. epidermidis): S. epidermidis (C)
- Organism, effect (S. pneumoniae): S. pneumoniae (D)
- Organism, effect (C. jejuni): C. jejuni (D)
- Organism, effect (E. coli): E. coli (C)
- Organism, effect (P. aeruginosa): P. aeruginosa (A)
- Organism, effect (C. albicans): C. albicans (B)
- Activities (microorganisms): G B

Substance: GIFKKFVKILYKVQKL [Peptide K-22]
- MIC (S. mutans [1]): S. mutans, 8 μM

Substance: KILKKLFKFVF [Peptide K-12]
- MIC (S. mutans [1]): S. mutans, 8 μM

Substance: FTRKFLKFLHL [Peptide K-17]
- MIC (S. mutans [1]): S. mutans, 8 μM

Substance: GILKKLFTKVF [Peptide K-13]
- MIC (S. mutans [1]): S. mutans, 16 μM

Substance: KILKFLFKQVF [Peptide K-11]
- MIC (S. mutans [1]): S. mutans, 4 μM

Substance: PF-S003: peptide having multiple activities (ALALLKQDLLNFEGRGRIITSTYLQFNEGCVP; Peptide with targeting and/or antimicrobial activity)
- Organism, effect (morphology, biofilm and growth disruption) (B. subtilis): B. subtilis (A)
- Organism, effect (morphology, biofilm and growth disruption) (C. jeikeium): C. jeikeium (D)
- Organism, effect (morphology, biofilm and growth disruption) (M. luteus): M. luteus (R)
- Organism, effect (morphology, biofilm and growth disruption) (MRSA): MRSA (M)
- Organism, effect (morphology, biofilm and growth disruption) (S. epidermidis): S. epidermidis (R)
- Organism, effect (morphology, biofilm and growth disruption) (S. pneumoniae): S. pneumoniae (D)
- Organism, effect (morphology, biofilm and growth disruption) (C. jejuni): C. jejuni (D)
- Organism, effect (morphology, biofilm and growth disruption) (P. aeruginosa): P. aeruginosa (A)
- Organism, effect (morphology, biofilm and growth disruption) (C. albicans): C. albicans (A)
- Activities (microorganisms): G B

Substance: VYRKRKSILKIYAKLKGWH [Peptide K-2]
- MIC (S. mutans [1]): S. mutans, 12.5 μM

Substance: LLKLLKLKKLKF [Peptide K-19]
- MIC (S. mutans [1]): S. mutans, 16 μM

Substance: PF-140: peptide having multiple activities (FHRRVIRASEWALTTRSFSTPLRSAAR; Peptide with targeting and/or antimicrobial activity)
- Organism, effect (C. jeikeium): C. jeikeium (D)
- Organism, effect (M. luteus): M. luteus (R)
- Organism, effect (MRSA): MRSA (M)
- Organism, effect (S. epidermidis): S. epidermidis (D)
- Organism, effect (S. pneumoniae): S. pneumoniae (D)
- Organism, effect (C. jejuni): C. jejuni (D)
- Organism, effect (P. aeruginosa): P. aeruginosa (A)
- Organism, effect (C. albicans): C. albicans (B)
- Activities (microorganisms): G B

Substance: PF-761: peptide having multiple activities (SKFELVNYASGCSCGADCKCASETECKCASKK; Peptide with targeting and/or antimicrobial activity)
- Organism, effect (morphology, biofilm and growth disruption) (M. luteus): M. luteus (C)
- Organism, effect (morphology, biofilm and growth disruption) (MRSA): MRSA (D)
- Organism, effect (morphology, biofilm and growth disruption) (S. epidermidis): S. epidermidis (C)
- Organism, effect (morphology, biofilm and growth disruption) (S. mutans [2]): S. mutans (D)
- Organism, effect (morphology, biofilm and growth disruption) (S. pneumoniae): S. pneumoniae (C)
- Organism, effect (morphology, biofilm and growth disruption) (E. coli): E. coli (C)
- Organism, effect (morphology, biofilm and growth disruption) (P. aeruginosa): P. aeruginosa (C)
- Target(s) (microorganisms bound by the targeting peptide) [3]: S. epidermidis and M. luteus and P. mirabilis and P. aeruginosa and C. albicans and MRSA and S. pneumoniae and E. faecalis
- Activities (microorganisms): G B

Substance: LRKNLRWLF [Peptide K-15]
- MIC (S. mutans [1]): S. mutans, 4 μM

Substance: FIRKFLKKWLL [Peptide K-9]
- MIC (S. mutans [1]): S. mutans, 4 μM

Substance: NYRLVNAIFSKIFKKKFIKF [Peptide K-7]
- MIC (S. mutans [1]): S. mutans, 12.5 μM

Substance: KKFKKFKVLKIL [Peptide K-18]
- MIC (S. mutans [1]): S. mutans, 16 μM

Substance: PF-746: peptide having multiple activities (FLGNSQYFTRK; Peptide with targeting and/or antimicrobial activity)
- Organism, effect (morphology, biofilm and growth disruption) (M. luteus): M. luteus (C)
- Organism, effect (morphology, biofilm and growth disruption) (MRSA): MRSA (C)
- Organism, effect (morphology, biofilm and growth disruption) (S. epidermidis): S. epidermidis (C)
- Organism, effect (morphology, biofilm and growth disruption) (S. mutans [2]): S. mutans (D)
- Organism, effect (morphology, biofilm and growth disruption) (S. pneumoniae): S. pneumoniae (C)
- Organism, effect (morphology, biofilm and growth disruption) (E. coli): E. coli (C)
- Organism, effect (morphology, biofilm and growth disruption) (P. aeruginosa): P. aeruginosa (A)
- Target(s) (microorganisms bound by the targeting peptide) [3]: S. epidermidis; also recorded: M. luteus; also recorded: E. coli; also recorded: C. albicans; also recorded: S. pneumoniae; also recorded: E. faecalis; also recorded: C. jeikeium
- Activities (microorganisms): G B

Substance: PF-425: peptide having multiple activities (MMELVLKTIIGPIVVGVVLRIVDKWLNKDK; Peptide with targeting and/or antimicrobial activity)
- Organism, effect (E. faecalis): E. faecalis (D)
- Organism, effect (MRSA): MRSA (D)
- Organism, effect (S. epidermidis): S. epidermidis (D)
- Organism, effect (S. pneumoniae): S. pneumoniae (D)
- Organism, effect (C. jejuni): C. jejuni (D)
- Organism, effect (E. coli): E. coli (C)
- Organism, effect (P. aeruginosa): P. aeruginosa (A)
- Organism, effect (C. albicans): C. albicans (A)
- Target(s) ([3]; microorganism(s) the targeting peptide binds, peptide binding conducted in aqueous buffers varied by peptide solubility): S. epidermidis and M. luteus and E. coli and P. aeruginosa and C. albicans and MRSA and S. pneumoniae and C. jeikeium
- Activities (microorganisms): G B

Substance: LRKFLHKLF [Peptide K-14]
- MIC (S. mutans [1]): S. mutans, 8 μM
